In brackets after ≈: the same amount, converted by molar mass. Read-outs that look alike come from different tables or passages of the source.

Type in all cases: physicochemical
Data set [1] is described as follows: Binding constant Kb by fluorescence titration. From the text:
The binding constant between a drug substance and complexing agent can be determined using spectroscopic techniques as outlined by Connors and references therein (Kenneth A. Connors: “Binding Constants”, Wiley-Interscience; 1. edition (April 1987)).
The simplified equilibrium for complexation between pazopanib (034 in Equation 1 shown below) drug substance and13-cyclodextrin sulfobutylether (e.g., Captisol® from Cydex Pharmaceuticals, Inc., Lenexa, Kans.) has been shown as Equation 1, where Kd is the dissociation constant and Kb is the binding constant, 034(s) is solid precipitate for pazopanib, 034(aq) is the aqueous concentration of unbound pazopanib (free state without complexation), Captisol(aq) is the difference between the initial Captisol concentration and the concentration of Captisol in the complexed state with drug substance and pazopanib. […] is the concentration of the complex between pazopanib and 034·Captisol (complexed state).
A titration experiment is performed using pazopanib (approximately 0.05 mg/ml, 10^-4M) solution by varying the concentration of β-cyclodextrin sulfobutylether solution and measuring the fluorescence intensity (excitation at 342 nm, emission at 375 nm) of the resulting solutions. Initial Captisol concentration are chosen to describe the entire titration curve appropriately and to prevent nucleation and precipitation of pazopanib in the solution. […]
The measured Fluorescence intensity is directly related to the concentration of the complexed state 034·Captisol(aq) since uncomplexed pazopanib 034(aq) and Captisol Captisol(aq) have negligible fluorescence yield. The measured fluorescence intensities are fitted using a non-linear simplex fitting routine to determine the value of the binding constant Kb. The Fluorescence intensities are plotted as a function of β-cyclodextrin sulfobutylether concentration according to Benesi and Hildebrandt to determine the binding stoichiometry. […]
Varian Cary Eclipse Fluorescence spectrometer (SN: EL05043801) with a lcm cuvette and orthogonal detection geometry or equivalent. […]

A short description of data set [2]: Solubility of pazopanib as a function of pH in phosphate buffer. As to conditions: for solubility at 5 days: phosphate buffer, 25 °C, thermodynamic from solid. The protocol:
• 1) Prep 25 mM phosphate buffer (using monobasic Sodium Phosphate, monohydrate), adjust the buffer solution to different target pH using 1N NaOH/HCl. • 2) Add excessive pazopanib free base to the above solutions (˜20 mg free base per 10 mL buffer solution), vortex the solutions, and mix well. […] Equilibrate the solutions for 5 days with agitation. • 4) After 5 days, measure the pH of the solubility solution immediately, and record the pH, and filter the solution into a test tube using a 0.22um PVDF filter. • 5) Dilute the solution by 1:1 (v/v) with 50:50:0.1 water:acetonitrile:TFA (v/v/v) diluent, and mix well. • 6) The solubility of the solutions is analyzed by HPLC at the detection wavelength of 268 nm.
Mobile Phase A: 100:0.1 (v/v) Water:TFA Mobile Phase B: 100:0.1 (v/v) Acetonitrile:TFA Column: Phenomenex Develosil RPAqueous-3, C-30, 3 um, 150 mm×4.6 mm Column temperature: 35° C. Flow rate: Isocratic at 1.0 mL/min, A/B=60/40 Detector wavelength: 268 nm Injection volume: 10 μ L Total run time: 4 minutes

Data set [3] in a line: Calculation of cyclodextrin utility number UCD. As to conditions: for K: conservative value used for UCD calculations. From the text:
The cyclodextrin utility number, UCD, is a dimensionless number used to assess the feasibility of using cyclodextrin in dosage forms. UCD is a lumped parameter consisting of the dose of the drug, the workable amount of CD, the binding constant, and the drug solubility in the absence of CDs. UCD can be used to predict the solubility of ionizable drugs showing a synergistic increase in solubility due to ionization and complexation. See, Rao, V. M., Stella, V. J., J Pharm Sci, 92, 5 927, May 2003. UCD is calculated using the following equation:
UCD=(KSo/1+KSo)(MCD/MD)(MWD/MWCD)
where, mD is dose of drug; mCD is dose of cyclodextrin; MWD is molecular weight drug; MWCD is molecular weight cyclodextrin; and Ko is binding constant.
UCD=(KSo/1+KSo)(mCD/mD)(MWD/MWCD)
Binding constant, K, as described in Example 4 above.
Solubility, So, as described in Example 5 above. from Rao, V. M., Stella, V. J., J Pharm Sci, 92, 5 927, May 2003.

A short description of data set [4]: Osmolality contribution of Captisol.

Consider `Cc1ccc(Nc2nccc(N(C)c3ccc4c(C)n(C)nc4c3)n2)cc1S(N)(=O)=O` [pazopanib], for which the “binding constant, Kb” value in data set [1] (pH of 4, temperature of 40° C.) was 9763 mol⁻¹; in data set [1] (pH of 5, temperature of 25° C.) it was 9130 mol⁻¹. For the same compound, in data set [1] (with modified cyclodextrin such as Captisol), the “binding constant of pazopanib, K” value is “approximately 10,000”. In addition, the “So” value in data set [2] (pH 3.5) is 4.57e-05 mol/L; in data set [2] (pH 4.0), 2.38e-06 mol/L. The “solubility in phosphate buffer” value in data set [2] (pH 3.5, 25° C.) was roughly 20 µg/mL (≈ 45.7 µM); in data set [2] (pH 4.0, 25° C.), roughly 1.043 µg/mL (≈ 2.38 µM); in data set [2] (pH 4.25, 25° C.), roughly 0.534 µg/mL (≈ 1.22 µM); in data set [2] (pH 4.5, 25° C.), roughly 0.025 µg/mL (≈ 0.0571 µM). Also, in data set [2] (pH 4.0, 25° C.), the “solubility in phosphate buffer (molar value)” value is ~2.38×10^−6. The “solubility, So” value in data set [2] (pH 4.25, 25° C.) is roughly 1.22 µM (≈ 0.534 µg/mL); in data set [2] (pH 4.5, 25° C.), roughly 0.0571 µM (≈ 0.025 µg/mL); in data set [2] (pH 5.0, 25° C.), 0.0137 µM (≈ 0.00599 µg/mL). In addition, the solubility – broadly, the concentration that dissolves in the medium under given conditions – at 5 days in data set [2] (pH 3.5, aqueous buffer, pH 3.5, 25° C., read-out: solubility in phosphate buffer) came to 20 µg/mL; in data set [2] (pH 3.5, aqueous buffer, pH 3.5, 25° C., read-out: solubility in phosphate buffer (molar value)), 45.7 µM; in data set [2] (pH 4, aqueous buffer, pH 4.0, 25° C., read-out: solubility in phosphate buffer) it was 1.04 µg/mL; in data set [2] (pH 4, aqueous buffer, pH 4.0, 25° C., read-out: solubility in phosphate buffer (molar value)) it was 2.38 µM; in data set [2] (pH 4.25, aqueous buffer, pH 4.25, 25° C., read-out: solubility in phosphate buffer), 0.534 µg/mL; in data set [2] (pH 4.25, aqueous buffer, pH 4.25, 25° C., read-out: solubility, So), 1.22 µM. Besides, the solubility at 5 days in data set [2] (pH 4.5, aqueous buffer, pH 4.5, 25° C., read-out: solubility in phosphate buffer) turned out to be 0.025 µg/mL; in data set [2] (pH 4.5, aqueous buffer, pH 4.5, 25° C., read-out: solubility, So), 0.0571 µM. For the same compound, the “(KSo)/(1 + KSo)” value in data set [3] (pH 3.5) is listed as 0.314; in data set [3] (pH 4.0), 0.023; in data set [3] (pH 4.25), 0.012; in data set [3] (pH 4.5) it was 0.0006; in data set [3] (pH 5.0), 0.0001. In addition, the “K” value in data set [3] (pH 3.5), in data set [3] (pH 4.0), in data set [3] (pH 4.25), in data set [3] (pH 4.5) and in data set [3] (pH 5.0) was 10000 L/mol throughout.

On to “β-cyclodextrin sulfobutylether [Captisol]”, for which the “Osmolality (mOsm)” value in data set [4] (Captisol 2 % (w/v)) is on record as 20 mOsm; in data set [4] (Captisol 3 % (w/v)), 50 mOsm; in data set [4] (Captisol 4 % (w/v)), 80 mOsm; in data set [4] (Captisol 5 % (w/v)) it was 110 mOsm; in data set [4] (Captisol 6 % (w/v)), 140 mOsm; in data set [4] (Captisol 7 % (w/v)), 170 mOsm. In addition, the “Osmolality (mOsm)” value in data set [4] (Captisol 8 % (w/v)) is listed as 201 mOsm; in data set [4] (Captisol 9 % (w/v)) it was 231 mOsm; in data set [4] (Captisol 10 % (w/v)), 261 mOsm; in data set [4] (Captisol 11 % (w/v)), 291 mOsm; in data set [4] (Captisol 12 % (w/v)) it was 321 mOsm; in data set [4] (Captisol 13 % (w/v)) it was 351 mOsm.
